In this assay the target is T1, GID4 (Uniprot ID: Q81VV7, residues 124-289) (Homo sapiens, UniProt Q8IVV7).
T1 construct: GID4 (Uniprot ID: Q81VV7, residues 124-289)
T1 sequence (Q8IVV7 124-289): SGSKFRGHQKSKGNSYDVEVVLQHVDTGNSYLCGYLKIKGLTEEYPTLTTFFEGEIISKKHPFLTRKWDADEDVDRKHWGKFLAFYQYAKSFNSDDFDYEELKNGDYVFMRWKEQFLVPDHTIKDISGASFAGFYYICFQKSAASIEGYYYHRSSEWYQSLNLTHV
In words: GID4 competitive binding assay (AlphaScreen, GID4/degron peptide PGLW). The note with it: 24 nM GID4, 48 nM biotinylated degron peptide PGLW, 4° C., read-out: IC50 (Inhibition of GID4/Degron binding by test compounds). In short, it runs like this: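 Displacement of biotin-tagged degron tetrapeptide PGLW (48 nM) from C-terminally 6His-tagged GID4 124-289 (24 nM) read by AlphaScreen proximity signal. Compound incubation 2 h, then beads 1 h, all at 4 °C, pH 7.5, 2% DMSO final; background-corrected inhibition fitted with variable slope for IC50.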
On the technique in general: Alpha assays give light when donor and acceptor beads are brought close together.
`Cc1ccccc1C1CN(c2cc(C(C)C)nc(N)n2)CCN1` (stereo not shown) [Compound 177, 4-isopropyl-6-(3-(o-tolyl)piperazin-1-yl)pyrimidin-2-amine]: the IC50 is over 5000 nM.

For `CN(C)CCNC(=O)c1c[nH]c2ncc(-c3ccc4ccnc(N)c4c3)cc12` [Compound 8, 5-(1-aminoisoquinolin-7-yl)-N-(2-(dimethylamino)ethyl)-1H-pyrrolo[2,3-b]pyridine-3-carboxamide], the IC50 was over 5000 nM.

Take `Nc1cc(N2CCCC(c3ncn4ccccc34)C2)nc(N)n1` (stereo not shown) [Compound 225, 6-(3-(imidazo[1,5-a]pyridin-1-yl)piperidin-1-yl)pyrimidine-2,4-diamine]: the IC50 lay within 500 to 5000 nM.

As for `Nc1cc(N2CCCC(c3cnc4ccccn34)C2)nc(N)n1` (racemic) [Compound 116, (R/S)-6-(3-(imidazo[1,2-a]pyridin-3-yl)piperidin-1-yl)pyrimidine-2,4-diamine], the IC50 was 500 to 5000 nM.

On to `Nc1nc2c(c(N3CCNC(c4nnc[nH]4)C3)n1)CSC2` (stereo not shown) [Compound 185, 4-(3-(4H-1,2,4-triazol-3-yl)piperazin-1-yl)-5,7-dihydrothieno[3,4-d]pyrimidin-2-amine], for which the IC50 was in the range of 500 to 5000 nM.

`CC(C)c1cc(N2CCCC(c3ccn[nH]3)C2)nc(N)n1` (stereo not shown) [Compound 210, 4-(3-(1H-pyrazol-5-yl)piperidin-1-yl)-6-isopropylpyrimidin-2-amine]: the IC50 was over 5000 nM.

Regarding `CN(C)CCNC(=O)c1csc(-c2cc(O)c3ncccc3c2)c1` [Compound 268, N-(2-(dimethylamino)ethyl)-5-(8-hydroxyquinolin-6-yl)thiophene-3-carboxamide], the IC50 is under 500 nM.

With `CN(C)CCNC(=O)c1ccc(-c2cc(O)c3ncnc(N)c3c2)cc1` [Compound 267, 4-(4-amino-8-hydroxyquinazolin-6-yl)-N-(2-(dimethylamino)ethyl)benzamide], the IC50 is under 500 nM.

With `Nc1cc(N2CCN(CCO)[C@H](c3ccccc3Br)C2)nc(N)n1` (stereo in doubt) [Compound 67, (R/S)-2-(2-(2-bromophenyl)-4-(2,6-diaminopyrimidin-4-yl)piperazin-1-yl)ethan-1-ol], the IC50 was 500 to 5000 nM.

For the molecule `Nc1nc(N2CCNC(c3cnc4ccccn34)C2)c2[nH]ccc2n1` (stereo not shown) [Compound 55, 4-(3-(imidazo[1,2-a]pyridin-3-yl)piperazin-1-yl)-5H-pyrrolo[3,2-d]pyrimidin-2-amine], the IC50 lay within 500 to 5000 nM.

Regarding `CN(C)CCNC(=O)c1n[nH]c2ccc(-c3ccc4ccnc(N)c4c3)nc12` [Compound 327, 5-(1-aminoisoquinolin-7-yl)-N-(2-(dimethylamino)ethyl)-1H-pyrazolo[4,3-b]pyridine-3-carboxamide], the IC50 lay within 500 to 5000 nM.

Take `CC(C)c1nc(N)cc(N2CCO[C@@H](c3ccccc3Br)C2)n1` (racemic) [Compound 72, (S/R)-6-(2-(2-bromophenyl)morpholino)-2-isopropylpyrimidin-4-amine]: the IC50 was under 500 nM.

`CC(C)c1cc(N2CCCC(F)(c3ccccc3Br)C2)nc(N)n1` (stereo not shown) [Compound 233, 4-(3-(2-bromophenyl)-3-fluoropiperidin-1-yl)-6-isopropylpyrimidin-2-amine]: the IC50 was in the range of 500 to 5000 nM.

In the case of `CC(C)c1cc(N2CCN[C@H](c3cnc4ccccn34)C2)c2nc[nH]c2n1` (stereo in doubt) [Compound 369, (S/R)-7-(3-(imidazo[1,2-a]pyridin-3-yl)piperazin-1-yl)-5-isopropyl-3H-imidazo[4,5-b]pyridine], the IC50 was under 500 nM.

Take `CC(C)c1cc(N2CCCC(n3cnc4ccccc43)C2)nc(N)n1` (stereo not shown) [Compound 256, 4-(3-(1H-benzo[d]imidazol-1-yl)piperidin-1-yl)-6-isopropylpyrimidin-2-amine]: the IC50 is under 500 nM.

In the case of `Nc1cc(N2CCCC(c3ccn[nH]3)C2)nc(N)n1` (stereo not shown) [Compound 193, 6-(3-(1H-pyrazol-5-yl)piperidin-1-yl)pyrimidine-2,4-diamine], the IC50 is over 5000 nM.

Take `Cc1nc(N)nc(N2CCCC(c3ccn[nH]3)C2)c1C` (stereo not shown) [Compound 214, 4-(3-(1H-pyrazol-5-yl)piperidin-1-yl)-5,6-dimethylpyrimidin-2-amine]: the IC50 is over 5000 nM.

Take `Nc1cc(N2CCCC(n3ncc4ccccc43)C2)nc(N)n1` (stereo not shown) [Compound 89, 6-(3-(1H-indazol-1-yl)piperidin-1-yl)pyrimidine-2,4-diamine]: the IC50 was over 5000 nM.

As for `Nc1nc(C2CC2)cc(N2CCNC(c3cnc4ccccn34)C2)n1` (single isomer, unassigned) [Compound 104, (R/S)-4-cyclopropyl-6-(3-(imidazo[1,2-a]pyridin-3-yl)piperazin-1-yl)pyrimidin-2-amine], the IC50 is over 5000 nM.

Turning to `CN(C)CCCNC(=O)c1ccc(-c2cc(O)c3ncccc3c2)s1` [Compound 296, N-(3-(dimethylamino)propyl)-5-(8-hydroxyquinolin-6-yl)thiophene-2-carboxamide], the IC50 is under 500 nM.

`CN(C)CCNC(=O)c1cc2cc(-c3ccc4ccnc(N)c4c3)ccc2cn1` [Compound 356, 1′-amino-N-(2-(dimethylamino)ethyl)-[6,7′-biisoquinoline]-3-carboxamide]: the IC50 was under 500 nM.

In the case of `c1ccn2c(C3CCCN(c4ccnc5[nH]ccc45)C3)cnc2c1` (stereo not shown) [Compound 91, 3-(1-(1H-pyrrolo[2,3-b]pyridin-4-yl)piperidin-3-yl)imidazo[1,2-a]pyridine], the IC50 is under 500 nM.

As for `CCc1cc(N2CCNC(c3cnc4ccccn34)C2)nc(N)n1` (single isomer, unassigned) [Compound 28, (S/R)-4-ethyl-6-(3-(imidazo[1,2-a]pyridin-3-yl)piperazin-1-yl)pyrimidin-2-amine], the IC50 was under 500 nM.

Regarding `Nc1nc(NCC2CC2)cc(N2CCOC(c3ccccc3Br)C2)n1` (single isomer, unassigned) [Compound 78, R or S-6-(2-(2-bromophenyl)morpholino)-N^4-(cyclopropylmethyl)pyrimidine-2,4-diamine], the IC50 is under 500 nM.

With `CNc1nc(N)cc(N2CCCC(c3ccccc3Br)C2)n1` (stereo not shown) [Compound 85, 6-(3-(2-bromophenyl)piperidin-1-yl)-N^2-methylpyrimidine-2,4-diamine], the IC50 fell in the range of 500 to 5000 nM.

The record behind these values is US20240132464A1, “HETEROCYCLIC COMPOUNDS AS E3 LIGASE INHIBITORS” (Accutar Biotechnology Inc., priority 2022, published 2024).
